Several values for one entry are separate records, joined by “and”; a condition that tells them apart may be missing. Equal entries are not always repeated.
Columns and labels:
[1] = (§1) Human liver microsomal stability of compound in microsomal protein, PBS buffer pH 7.4, NADPH, glucose-6-phosphate and glucose-6-phosphate dehydrogenase media. Aliquotes were taken at 5 time points and after stopping the reaction, supernatants were analyzed using HPLC coupled with a tandem mass spectrometer. The elimination constant, half-life, and intrinsic clearance are determined as results using linear regression analysis.; type: ADME, microsomes, Microsome; settings: for half-life / microsomal CLint: liver microsomes
[2] = as §1, with “Mouse” for “Human”; type: ADME, microsomes, Microsome; settings: for half-life / microsomal CLint: liver microsomes
For Remaining (without cofactor) in this document: time not given here.
For Remaining in this document: time not given here.

half-life [1] [h]	microsomal CLint [1] [µL/min/mg]	Remaining ([1]; microsomes)	Remaining (without cofactor) ([1]; microsomes)	half-life [2] [h]	microsomal CLint [2] [µL/min/mg]	Remaining ([2]; microsomes)	Remaining (without cofactor) ([2]; microsomes)	CLint ([1]; microsomes) [µL/min/mg]	T1/2 ([1]; microsomes) [h]	CLint ([2]; microsomes) [µL/min/mg]	T1/2 ([2]; microsomes) [min]	SMILES
> 2.89	< 10	95.811%	102.779%	0.745	37.4	53.571%	103.66%					O=C(Nc1ccc2c(c1)CNC2)c1cc(F)cc2c1CCC2
> 2.89	< 10	87.708%	99.462%	1.64	16.9	73.587%	92.469%					COc1ccc(-c2nc3c(C(=O)Nc4ccc5c(c4)CNC5)cc(F)cc3[nH]2)nn1
> 2.89	< 10	91.954%	107.924%	2.16	12.9	81.928%	96.342%					COc1cc(Cl)cc([C@H](Nc2ccc3c(c2)CNC3)C(=O)NCC(F)F)c1
> 2.89	< 10	91.331%	107.659%	> 2.89	< 10	95.033%	94.186%					CNC(=O)[C@H](Nc1ccc2c(c1)CNC2)c1cc(Cl)cc2[nH]c(-c3ccccc3)nc12
> 2.89	< 10	87.652%	96.46%	0.115	243	1.932%	102.129%					O=C(Nc1ccc2c(c1)CNC2)c1cc(Cl)cc2[nH]ncc12
1.8	15	82%	110%	0.695	33	52%	101%					COc1cc(Cc2c(-c3ccc(F)cc3)noc2C)nc(N2CCNCC2)n1
> 2.89	< 10	93.073%	104.062%	> 2.89	< 10	90.033%	104.77%					COc1cc(C#N)cc([C@H](Nc2ccc3c(c2)CNC3)C(=O)NCC(F)F)c1
> 2.89	< 10	91.353%	101.456%	1.09	25.5	63.701%	92.242%					Cn1ncc2c(C(=O)Nc3ccc4c(c3)CNC4)cc(Cl)cc21
0.79	35.2	55.679% and 55.059%	98.537% and 92.131%	0.051	545	0.198% and 0.909%	96.471% and 97.807%	36.323	0.76638	553.458	3.018	O=C(Nc1ccc2c(c1)CNC2)c1cc(F)cc(-c2cn[nH]c2)c1
> 2.89	< 10	95.49%	97.444%	0.115	243	2.163%	108.846%					O=C(Nc1cc2c(c(-c3c[nH]c(=O)c(F)c3)c1)CNC2)c1cc(F)cc2[nH]ncc12
> 2.89	< 10	89.52%	98.721%	1.27	22	68.981%	99.493%					N#Cc1cccc(-c2nc3c(C(=O)Nc4ccc5c(c4)CNC5)cc(F)cc3[nH]2)c1
> 2.89	< 10	107.799%	101.944%	1.14	24.5	67.731%	99.51%					O=C(Nc1ccc2c(c1)CNC2)c1cc(Cl)cc2ccncc12
> 2.89	< 10	91.952%	110.51%	> 2.89	< 10	87.443%	105.088%					O=C(NCC(F)F)[C@H](Nc1cnc2c(c1)CNC2)c1cc(Cl)cc(C2CC2)c1
> 2.89	< 10	99%	112.283%	> 2.89	< 10	87.64%	93.435%					O=C1Cc2c(cc(F)cc2C(=O)Nc2ccc3c(c2)CNC3)N1
				> 2.89	< 10	102.985%	100.305%					O=C1Cc2cc(C(=O)Nc3ccc4c(c3)CNC4)ccc2N1
> 2.89	< 10	90.19%	105.644%	0.184	152	8.587%	96.063%					O=C(Nc1cc2c(c(C3=CCOCC3)c1)CNC2)c1cc(F)cc2[nH]ncc12
				0.0717	388	0.854%	95.554%					Cc1c(C(=O)Nc2cc(-c3cccnc3)ccn2)cc(C2CC2)n1C
0.73	38.1	53.75%	101.907%									c1ccc2sc(C3CCN(Cc4c[nH]c5ccccc45)CC3)nc2c1
2.71	10.3	84.178%	84.336%									N#C[C@H](Nc1ccc2c(c1)CNC2)c1cc(Cl)cc2[nH]ncc12
> 2.89	< 10	91.016%	98.201%									O=C(Nc1cc(Cl)cc(C(=O)Nc2cccc(C3CCNCC3)c2)c1)OCc1ccccc1
0.4	70	33%	104%									O=C(NCC(F)(F)F)c1cc(Cl)c(F)cc1NS(=O)(=O)c1ccc(Oc2ccccc2Cl)cc1
1.59	17.5	76.258%	74.637%									NCCc1ccc(NC(=O)c2cc(Cl)cc(NC(=O)OCc3ccccc3)c2)cc1
> 2.89	< 10	97.296%	93.037%									C=CC[C@H]1NCc2cc(NC(=O)c3cc(F)cc4[nH]ncc34)ccc21

SMILES	half-life [1] [h]	microsomal CLint [1] [µL/min/mg]	Remaining ([1]; microsomes)	Remaining (without cofactor) ([1]; microsomes)	half-life [2] [h]	microsomal CLint [2] [µL/min/mg]	Remaining ([2]; microsomes)	Remaining (without cofactor) ([2]; microsomes)	CLint ([1]; microsomes) [µL/min/mg]	T1/2 ([1]; microsomes) [h]	CLint ([2]; microsomes) [µL/min/mg]	T1/2 ([2]; microsomes) [min]
O=C(NCC(F)F)[C@H](Nc1ccc2c(c1)CNC2)c1cc(Cl)cc(C2CC2)c1	> 2.89	< 10	87.774% and 93.401% and 87.317% and 91.082%	101.867% and 96.07% and 104.631% and 112.978%	> 2.89	< 10	90.622% and 93.184%	90.232% and 99.155%				
